Values quoted from earlier work, collected in patent US20220273802A1, “METHODS FOR IMPROVED DELIVERY OF AMINOTHIOLS, DIMERS OF AMINOTHIOLS, AND HETERODIMERS COMPOSED OF AMINOTHIOLS” (THE BURLINGTON HC RESEARCH GROUP, INC., priority 2012, published 2022).

Experiments:
mouse L cells = conditions: for radioprotective effect upon mouse L cells in culture: compound alone, without dephosphorylation
V79 cells = conditions: for activity if present outside of V79 cells: compound present outside of cells
SIV = conditions: later studies
[1] = test system: three species of adenovirus

Row | Compound | radioprotective effect upon mouse L cells in culture (mouse L cells) | radioprotective activity (mouse L cells; incubated with mouse liver homogenate (active alkaline phosphatase)) | activity if present outside of V79 cells (V79 cells) | efficacy against SIV (SIV) | antiviral efficacy against three species of adenovirus [1] | protection against gamma-radiation (V79 cells; correlated with intracellular levels) | antiviral efficacy against influenza virus A and B (influenza virus A and B) | antiviral efficacy against HIV (HIV)
1 | NCCCNCCSP(=O)(O)O [Amifostine] | no radioprotective effect | radioprotective activity was observed | did not show evidence of activity | – | – | – | – | –
2 | NCCCNCCSSCC(N)C(=O)O (stereo not drawn) [WR-1065-Cys] | – | – | did not show evidence of activity | – | – | – | – | –
3 | NCCCNCCS [WR-1065] | Activity also was observed | – | did not show evidence of activity | demonstrated efficacy | exhibits antiviral efficacy | significant protection | exhibits antiviral efficacy | exhibits antiviral efficacy
4 | NCCCNCCSSCCNCCCN [WR-33278] | – | – | did not show evidence of activity | – | – | – | – | –
